Legend:
human RBP4 = human RBP4 (Homo sapiens (Human), UniProt P02753); assay: Binding assay by Retinol-RBP4-TTR ELISA; conditions: at 10 μM compound; read-out: human RBP4 binding inhibitory activity(% at 10 μM)
Summary of the method: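 Biotinylated human TTR was captured on streptavidin plates, then His-tagged human RBP4 was added with compound premixed with 50 nM retinol (8 doses). Binding ran 2 h at room temperature in 50 mM Tris-HCl, 150 mM NaCl, 0.005% Tween 20, 1 mM DTT, 0.1% BSA, read by luminescence. Inhibition was scaled between retinol+DMSO and retinol-free controls, and IC50 fitted.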

RBP4 = RBP4 (Rattus norvegicus (Rat), UniProt P04916); assay: Single administration test in Wistar fatty rats, plasma RBP4 by ELISA; assay type: in vivo; conditions: male Wistar fatty rats, 10 mg/kg oral single dose, mean±SD
Procedure: The action of the compounds of the present invention to lower plasma RBP4 level was evaluated using the animal model shown below.
(§1) Male Wistar fatty rats (fa/fa) were bred in Takeda Pharmaceutical Company Limited and maintained on normal diet (CE2, CLAE Japan, Inc.) and tap water. Animals were housed in a temperature-controlled room adjusted to a 12-hour light/12-hour dark cycle beginning at 7:00 and 19:00, respectively. All procedures were conducted according to the experimental animal care use committee of Takeda Pharmaceutical Company.
Male 13-43-week-old Wistar fatty rats were divided into groups randomly. Compounds were suspended in 0.5% (w/v) methylcellulose in water and given orally to Wistar fatty rats at a dose of 10 mg/10 mL/kg of body weight (3-5 rats per group). Blood samples were obtained from tail vein with sodium heparin as an anticoagulant at time 0 hr (just before the administration), 4 hr, 7 hr, and 24 hr after the administration, followed by plasma separation by centrifugation. Plasma RBP4 levels were measured by enzyme-linked immunosorbent assay described in the following section.
Plasma samples were analyzed in duplicate for RBP4 by an enzyme-linked immunosorbent assay. Mouse recombinant RBP4 (Takeda Pharmaceutical Company Limited) was used as standards, and the assay range was 0.313-20 ng/ml. Samples were diluted 10,000-fold with phosphate-buffered saline (PBS) (Sigma) containing 10% (w/v) BlockAce (Dainippon Sumitomo Pharma Co., Ltd). Rabbit anti-RBP4 polyclonal antibody (100 μL/well of 50 μg/mL, Hokudo Co, Ltd) was incubated in a 96-well plate (Nalge Nunc International K.K.) for overnight at 4° C. Subsequently, the plates were washed with PBS-T (Wako Pure Chemical Industries, Ltd.) and blocked with PBS containing 25% BlockAce for 1 hr at room temperature. After another washing with PBS-T, samples and standards were applied to the well, and the plates were incubated for 2 hr at room temperature. After a washing the wells, peroxidase-labeled (Dojindo Laboratories) anti-RBP4 (100 μL/well) was added to the wells, and then the plates were incubated for 1 hr at room temperature. After a final washing with PBS-T, substrate solution 3,3,5,5-tetramethylbenzidine (Sigma) was added to the wells, and the plates were placed in the dark for 5-20 min at room temperature. The reaction was stopped with 0.5 M sulphuric acid and the optical density was measured with a spectrophotometer at 450 nm. The changes in plasma RBP4 levels were expressed as % of initial/Control. All data are presented as mean±SD.

CD (SD) rats = assay: Repeated drug administration test in CD (SD) rats, retinol in plasma and retina by HPLC; assay type: in vivo
Procedure: The effect of the compound on retinol level in retina was evaluated using the animal model shown below.
as §1, with “CD (SD)” for “Wistar fatty”, “rats” for “rats (fa/fa)”, “purchased from Charles River (Japan)” for “bred in Takeda Pharmaceutical Company Limited”, “(CR-LPF) (Oriental Yeast Co., Ltd.)” for “(CE2, CLAE Japan, Inc.)”
A compound was suspended in 0.5% (w/v) methylcellulose in water and given orally to rats at a volume of 10 mL/kg of body weight. Drug administration was started at 6 weeks of age and a drug (10 mg/kg) was administered once a day for 14 days. After repeated administration, blood samples were obtained from tail vein. Rats were dissected under anesthesia with ethyl ether and eyes were isolated.
Retina was isolated from the eye of the rats mentioned 5B with stereoscopic microscope and sonicated. Retinol was extracted into n-hexane and samples were taken to dryness under nitrogen gas. Samples residues were resuspended into 2-propanol and analyzed by HPLC. Chromatographic separations were achieved on TSKgel ODS120T Column (4.6×250 mm) (Tosoh) using Alliance series reverse phase HPLC (Waters). The mobile phase contained acetonitrile/methanol (3/1) at 4° C. and detected at UV 325 nm. Retinol in retina was corrected by total protein detected by BCA protein assay (Pierce).

O=C(O)CCc1nc(-c2cc(C(F)(F)F)cc(C(F)(F)F)c2)co1 [Reference Example 26, 3-{4-[3,5-bis(trifluoromethyl)phenyl]-1,3-oxazol-2-yl}propanoic acid, reference compound]
inhibition at 10 µM (human RBP4): 100%
RBP4 (% of initial/Control) 0 hr (RBP4; 0 hr (just before the administration)): 100 ± 22.9 % of initial/Control
RBP4 (% of initial/Control) 4 hr (RBP4; 4 hr after administration): 34.7 ± 13.7 % of initial/Control
RBP4 (% of initial/Control) 7 hr (RBP4; 7 hr after administration): 24.9 ± 10.6 % of initial/Control
RBP4 (% of initial/Control) 24 hr (RBP4; 24 hr after administration): 9.2 ± 6.1 % of initial/Control
effect on retinol in plasma and retina (in words) (CD (SD) rats; CD (SD) rats, 10 mg/kg, 14 days repeated administration): decreased retinol in plasma and retina significantly
Retinol in retina (CD (SD) rats; male CD (SD) rats, 10 mg/kg oral once a day for 14 days, corrected by total protein, mean±SD): 0.06 ± 0.01 µg/mg
Retinol in plasma (μg/mL) (CD (SD) rats; male CD (SD) rats, 10 mg/kg oral once a day for 14 days, mean±SD): Not detected
